The values below come from ChEMBL document CHEMBL1157346, “Synthesis and antiproliferative activity in vitro of novel (2-butynyl)thioquinolines” (2008).

Holding throughout (type): functional
One test relates to B16. As to the kind of experiment: Cytotoxicity against mouse B16 cells after 72 hrs by SRB assay. Conditions: for IC50: B16, 72 h, read-out: ID50 (the source's name). (In general: The SRB assay estimates cell density from bound dye.)
The next test has as its system CCRF-CEM. Description: Cytotoxicity against human CCRF-CEM cells after 72 hrs by SRB assay. Conditions: for IC50: read-out: ID50 (the source's name).
A short description of test [1]: (§1) Cytotoxicity against human SW707 cells after 72 hrs by SRB assay. To be noted: SW707, 72 h, read-out: ID50 (the source's name).
Another test has as its system P388. As to the kind of experiment: Cytotoxicity against mouse P388 cells after 72 hrs by MTT assay. Conditions: for IC50: P388, 72 h, read-out: ID50 (the source's name). (Formazan colour is commonly taken as a measure of viable cells.)
The test system of the next test is SW707. The test is described as §1.

≈ marks a conversion by molar mass, not a printed value. Calls of active or inactive are those of the source. The rule behind the calls is not given here.

For the compound `C#CC[Se]c1c(SCC#CCO)cnc2ccccc12`, the IC50 came to 6.8 µg/mL (≈ 19.6 µM) in the test on B16, 1.9 µg/mL (≈ 5.49 µM) in the test with CCRF-CEM, 3.8 µg/mL (≈ 11 µM) in test [1] and 2.5 µg/mL (≈ 7.22 µM) with P388.

On to `OCC#CCSc1cnc2ccccc2c1[Se]CC#CCBr`, for which the IC50 with B16 came out at 4.6 µg/mL (≈ 10.5 µM); with CCRF-CEM, 0.2 µg/mL (≈ 0.455 µM); in test [1], 2.8 µg/mL (≈ 6.37 µM); in the test on P388, 1.6 µg/mL (≈ 3.64 µM).

`C#CCSc1cnc2ccccc2c1[Se]CC#CCBr`: the IC50 with B16 was 4.2 µg/mL (≈ 10.3 µM); in the test with CCRF-CEM, 0.3 µg/mL (≈ 0.733 µM); in test [1], 2.2 µg/mL (≈ 5.38 µM); with P388, 1.2 µg/mL (≈ 2.93 µM).

As to `CSc1cnc2ccccc2c1[Se]CC#CCO`, the IC50 with B16 is 4.2 µg/mL (≈ 13 µM); with CCRF-CEM, 0.5 µg/mL (≈ 1.55 µM); in test [1] it was 3.4 µg/mL (≈ 10.5 µM); in the test on P388, 2.6 µg/mL (≈ 8.07 µM).

Regarding `CSc1c(SCC#CCO)cnc2ccccc12`, the outcome in the test on B16 was inactive. Besides, the IC50 was determined as 13.9 µg/mL (≈ 50.5 µM) with CCRF-CEM, 69.3 µg/mL (≈ 252 µM) in test [1] and 32.3 µg/mL (≈ 117 µM) in the test on P388.

As for `CC#CCSc1cnc2ccccc2c1SCC#CCSc1c(SCC#CC)cnc2ccccc12`, the outcome in the test on B16, in the test with CCRF-CEM, with SW707 and in the test with P388 was inactive.

For the compound `OCC#CCSc1cnc2ccccc2c1SCC#CCO`, the IC50 amounted to 42.2 µg/mL (≈ 128 µM) in the test on B16, 2.6 µg/mL (≈ 7.89 µM) in the test with CCRF-CEM, 32 µg/mL (≈ 97.1 µM) in test [1] and 5.7 µg/mL (≈ 17.3 µM) in the test on P388.

Regarding `CSc1cnc2ccccc2c1SCC#CCSc1c(SC)cnc2ccccc12`, the outcome in the test with B16, in the test with CCRF-CEM, in the test on SW707 and in the test on P388 was inactive.

In the case of `C#CCSc1c(SCC#CCO)cnc2ccccc12`, the outcome in the test with B16 and with SW707 was inactive. The IC50 in the test on CCRF-CEM was 2.7 µg/mL (≈ 9.02 µM); in the test with P388, 13.3 µg/mL (≈ 44.4 µM).

Regarding `C#CCSc1cnc2ccccc2c1[Se]CC#CCO`, the IC50 in the test on B16 worked out at 3.6 µg/mL (≈ 10.4 µM); in the test with CCRF-CEM it was 3.2 µg/mL (≈ 9.24 µM); in test [1], 3.3 µg/mL (≈ 9.53 µM); in the test with P388, 3.1 µg/mL (≈ 8.95 µM).

Regarding `C#CCSc1cnc2ccccc2c1SCC#CCSc1c(SCC#C)cnc2ccccc12`, the result in the test with B16, in the test on CCRF-CEM, in the test with SW707 and with P388 was inactive.

Take `C[Se]c1c(SCC#CCO)cnc2ccccc12`: the IC50 was 5.8 µg/mL (≈ 18 µM) in the test with B16, 2.1 µg/mL (≈ 6.52 µM) in the test on CCRF-CEM, 3.5 µg/mL (≈ 10.9 µM) in test [1] and 19.8 µg/mL (≈ 61.4 µM) with P388.

Turning to `C#CCSc1cnc2ccccc2c1SCC#CCO`, the IC50 in the test on B16 was 54.7 µg/mL (≈ 183 µM); in the test with CCRF-CEM, 3.2 µg/mL (≈ 10.7 µM); in test [1] it was 42.6 µg/mL (≈ 142 µM); in the test with P388 it was 4 µg/mL (≈ 13.4 µM).

As to `OCC#CCSc1cnc2ccccc2c1[Se]CC#CCO`, the IC50 in the test with B16 is 4.3 µg/mL (≈ 11.4 µM); in the test on CCRF-CEM, 1.4 µg/mL (≈ 3.72 µM); in test [1], 26.6 µg/mL (≈ 70.7 µM); in the test with P388, 4.1 µg/mL (≈ 10.9 µM).

Take `OCC#CCSc1cnc2ccccc2c1SCC#CCBr`: the IC50 worked out at 4.9 µg/mL (≈ 12.5 µM) in the test on B16, 0.6 µg/mL (≈ 1.53 µM) in the test with CCRF-CEM, 36.2 µg/mL (≈ 92.3 µM) in test [1] and 43.2 µg/mL (≈ 110 µM) with P388.

On to `CSc1cnc2ccccc2c1SCC#CCO`, for which the IC50 in the test on B16 was determined as 49.8 µg/mL (≈ 181 µM); with CCRF-CEM, 2.3 µg/mL (≈ 8.35 µM); in test [1], 34.9 µg/mL (≈ 127 µM); in the test on P388 it was 3.1 µg/mL (≈ 11.3 µM).

As to `C#CCSc1cnc2ccccc2c1SCC#CC[Se]c1c(SCC#CC)cnc2ccccc12`, the result with B16 was inactive. For the same compound, the IC50 with CCRF-CEM stood at 30.3 µg/mL (≈ 52.8 µM); in test [1], 43 µg/mL (≈ 75 µM); in the test on P388 it was 30.7 µg/mL (≈ 53.5 µM).

Consider `COc1c(SCC#CCO)cnc2ccccc12`, for which the result in the test on B16 was inactive. Further, the IC50 is 22 µg/mL (≈ 84.8 µM) with CCRF-CEM, 67.4 µg/mL (≈ 260 µM) in test [1] and 23.2 µg/mL (≈ 89.5 µM) in the test on P388.

For the compound `OCC#CCSc1cnc2ccccc2c1Cl`, the result in the test on B16 was inactive. The figures for the IC50 (in the test on CCRF-CEM; in test [1]; in the test with P388) were 4.1 µg/mL (≈ 15.5 µM), 6.2 µg/mL (≈ 23.5 µM) and 2.4 µg/mL (≈ 9.1 µM), respectively.
